The subject of the assay is CD2F1 mice, L1210 leukemia ip, survival T/C. Kind of assay: NCI In Vivo Anticancer Drug Screen. Data for tumor model L1210 Leukemia (intraperitoneal) in CD2F1 (CDF1) mice. The following applies: higher = longer survival. In short, it runs like this:
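Compound-dosed mice with transplantable tumor versus matched vehicle controls; endpoint ratio T/C reported.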

Setting [1] is: endpoint: mean survival time, dose: 100.0 mg/kg/injection, schedule: Q01DX009 (ip), vehicle: saline with Tween-80.
The mark [2] stands for this setting: endpoint: mean survival time, dose: 100.0 mg/kg/injection, schedule: Q04DX003 (ip), vehicle: saline with Tween-80.
The mark [3] stands for this setting: endpoint: mean survival time, dose: 200.0 mg/kg/injection, schedule: Q04DX003 (ip), vehicle: saline with Tween-80.
The mark [4] stands for this setting: endpoint: mean survival time, dose: 400.0 mg/kg/injection, schedule: Q04DX003 (ip), vehicle: saline with Tween-80.

Several values for one entry are separate records, joined by “and”; a condition that tells them apart may be missing. Equal entries are not always repeated. Toxic doses and inconclusive results are not listed.

Take `CN(Cc1ccc2nc(N)nc(N)c2n1)c1ccc(C(=O)NC(CCC(=O)O)C(=O)O)cc1` (centres undefined): the T/C by setting is: (endpoint: mean survival time, dose: 0.12 mg/kg/injection, schedule: Q01DX005 (ip), vehicle: sodium bicarbonate) 150 % of control; (endpoint: mean survival time, dose: 0.5 mg/kg/injection, schedule: Q01DX005 (ip), vehicle: sodium bicarbonate) 115 % of control; (endpoint: mean survival time, dose: 31.25 micrograms/kg/injection, schedule: Q01DX005 (ip), vehicle: sodium bicarbonate) 101 % of control; (endpoint: mean survival time, dose: 62.5 micrograms/kg/injection, schedule: Q01DX005 (ip), vehicle: sodium bicarbonate) 116 % of control; (endpoint: mean survival time, dose: 125.0 micrograms/kg/injection, schedule: Q01DX005 (ip), vehicle: sodium bicarbonate) 122 % of control.

As to `Oc1cc2c(cc1O)-c1[nH]ncc1CC2`, the T/C (endpoint: mean survival time, dose: 100.0 mg/kg/injection, schedule: Q04DX002 (ip), vehicle: saline with Tween-80) is 115 % of control; the T/C (endpoint: mean survival time, dose: 200.0 mg/kg/injection, schedule: Q04DX002 (ip), vehicle: saline with Tween-80) was 103 % of control; the T/C (endpoint: mean survival time, dose: 400.0 mg/kg/injection, schedule: Q04DX002 (ip), vehicle: saline with Tween-80) was 98 % of control.

As for `COC(=O)c1ccc(OC)c2nc3c(C=O)c(OC)cc(OC)c3nc12`, the T/C reads like this: (endpoint: mean survival time, dose: 5.3 mg/kg/injection, schedule: Q01DX009 (ip), vehicle: saline with Tween-80) 94 % of control; (endpoint: mean survival time, dose: 8.0 mg/kg/injection, schedule: Q01DX009 (ip), vehicle: saline with Tween-80) 92 % of control; (endpoint: mean survival time, dose: 12.0 mg/kg/injection, schedule: Q01DX009 (ip), vehicle: saline with Tween-80) 94 % of control; (endpoint: mean survival time, dose: 18.0 mg/kg/injection, schedule: Q01DX009 (ip), vehicle: saline with Tween-80) 97 % of control.

As to `COc1ccc(C(=O)/C=C/c2cccc3ccccc23)cc1`, the T/C is 91 % of control (endpoint: mean survival time, dose: 25.0 mg/kg/injection, schedule: Q01DX009 (ip), vehicle: saline with Tween-80); 93 % of control (endpoint: mean survival time, dose: 50.0 mg/kg/injection, schedule: Q01DX009 (ip), vehicle: saline with Tween-80); 91 % of control under setting [1].

As to `CN(C)/N=N/c1[nH]cnc1C(N)=O.[Cl][Cu][Cl]`, the T/C was 97 % of control (endpoint: mean survival time, dose: 1.56 mg/kg/injection, schedule: Q04DX003 (ip), vehicle: water); 96 % of control (endpoint: mean survival time, dose: 2.0 mg/kg/injection, schedule: Q01DX001 (ip), vehicle: distilled water + Tween-80); 106 % of control (endpoint: mean survival time, dose: 3.13 mg/kg/injection, schedule: Q04DX003 (ip), vehicle: water); 94 % of control (endpoint: mean survival time, dose: 4.0 mg/kg/injection, schedule: Q01DX001 (ip), vehicle: distilled water + Tween-80); 95 % of control (endpoint: mean survival time, dose: 6.25 mg/kg/injection, schedule: Q04DX003 (ip), vehicle: water); 99 % of control (endpoint: mean survival time, dose: 8.0 mg/kg/injection, schedule: Q01DX001 (ip), vehicle: distilled water + Tween-80). In addition, the T/C was 94 % of control (endpoint: mean survival time, dose: 12.5 mg/kg/injection, schedule: Q04DX003 (ip), vehicle: water); 88 % of control (endpoint: mean survival time, dose: 16.0 mg/kg/injection, schedule: Q01DX001 (ip), vehicle: distilled water + Tween-80); 92 % of control (endpoint: mean survival time, dose: 32.0 mg/kg/injection, schedule: Q01DX001 (ip), vehicle: distilled water + Tween-80).

As to `C=CCCCCC/C=C/CCCCCC`, the T/C (endpoint: mean survival time, dose: 100.0 mg/kg/injection, schedule: Q01DX001 (ip), vehicle: saline) was 96 % of control; the T/C (endpoint: mean survival time, dose: 100.0 mg/kg/injection, schedule: Q04DX003 (ip), vehicle: saline) was 108 % of control; the T/C (endpoint: mean survival time, dose: 200.0 mg/kg/injection, schedule: Q01DX001 (ip), vehicle: saline) was 98 % of control; the T/C (endpoint: mean survival time, dose: 200.0 mg/kg/injection, schedule: Q04DX003 (ip), vehicle: saline) is 103 % of control; the T/C (endpoint: mean survival time, dose: 400.0 mg/kg/injection, schedule: Q01DX001 (ip), vehicle: saline) is 104 % of control; the T/C (endpoint: mean survival time, dose: 400.0 mg/kg/injection, schedule: Q04DX003 (ip), vehicle: saline) was 106 % of control.

Regarding `CC(=O)C1=C(O)C2(O)C(=O)c3c(c(C)c4ccc(C)c(O)c4c3O)CC2C(N)C1=O` (centres undefined), the T/C was 102 % of control and 105 % of control (endpoint: mean survival time, dose: 3.75 mg/kg/injection, schedule: Q01DX009 (ip), vehicle: saline + alcohol); 103 % of control (endpoint: mean survival time, dose: 7.3 mg/kg/injection, schedule: Q01DX009 (ip), vehicle: saline + alcohol); 107 % of control (endpoint: mean survival time, dose: 7.5 mg/kg/injection, schedule: Q01DX009 (ip), vehicle: saline + alcohol); 107 % of control and 108 % of control (endpoint: mean survival time, dose: 15.0 mg/kg/injection, schedule: Q01DX009 (ip), vehicle: saline + alcohol); 115 % of control (endpoint: mean survival time, dose: 30.0 mg/kg/injection, schedule: Q01DX009 (ip), vehicle: saline + alcohol); 107 % of control and 111 % of control (endpoint: mean survival time, dose: 60.0 mg/kg/injection, schedule: Q01DX009 (ip), vehicle: saline + alcohol).

As to `Cc1c(N=Nc2ccc(N(C)C)cc2)cc[n+]([O-])c1C`, the T/C under setting [2] is 102 % of control and the T/C under setting [3] was 110 % of control.

As for `CSc1nn(C2OC(COC(=O)c3ccccc3)C(OC(=O)c3ccccc3)C2OC(=O)c2ccccc2)c(=O)[nH]c1=S` (centres undefined), the T/C by setting is: (endpoint: mean survival time, dose: 12.5 mg/kg/injection, schedule: Q01DX005 (ip), vehicle: distilled water + Tween-80) 96 % of control; (endpoint: mean survival time, dose: 25.0 mg/kg/injection, schedule: Q01DX005 (ip), vehicle: distilled water + Tween-80) 98 % of control; (endpoint: mean survival time, dose: 50.0 mg/kg/injection, schedule: Q01DX005 (ip), vehicle: distilled water + Tween-80) 95 % of control; (endpoint: mean survival time, dose: 100.0 mg/kg/injection, schedule: Q01DX005 (ip), vehicle: distilled water + Tween-80) 93 % of control; (endpoint: mean survival time, dose: 200.0 mg/kg/injection, schedule: Q01DX005 (ip), vehicle: distilled water + Tween-80) 91 % of control.

As for `C[Si](C)(c1ccccc1C(=O)Nc1ccccc1)c1ccccc1C(=O)Nc1ccccc1`, the T/C reads like this: under setting [2], 92 % of control; under setting [3], 96 % of control; under setting [4], 101 % of control.

As to `O=c1[nH]c(-c2ccccc2)c(N=Nc2ccccc2)c(=O)[nH]1`, the T/C reads like this: (endpoint: mean survival time, dose: 100.0 mg/kg/injection, schedule: Q01DX001 (ip), vehicle: saline with Tween-80) 89 % of control; (endpoint: mean survival time, dose: 200.0 mg/kg/injection, schedule: Q01DX001 (ip), vehicle: saline with Tween-80) 96 % of control; (endpoint: mean survival time, dose: 400.0 mg/kg/injection, schedule: Q01DX001 (ip), vehicle: saline with Tween-80) 102 % of control.

On to `O=C([O-])C1OC([n+]2ccccc2)C(O)C(O)C1O` (centres undefined), for which the T/C was 101 % of control (endpoint: median survival time, dose: 12.5 mg/kg/injection, schedule: Q01DX005 (ip), vehicle: saline); 100 % of control (endpoint: median survival time, dose: 25.0 mg/kg/injection, schedule: Q01DX005 (ip), vehicle: saline); 107 % of control (endpoint: median survival time, dose: 50.0 mg/kg/injection, schedule: Q01DX005 (ip), vehicle: saline); 112 % of control (endpoint: median survival time, dose: 100.0 mg/kg/injection, schedule: Q01DX005 (ip), vehicle: saline); 102 % of control (endpoint: median survival time, dose: 200.0 mg/kg/injection, schedule: Q01DX005 (ip), vehicle: saline).

On to `CN[C@H]1CCc2cc(OC)c(OC)c(OC)c2-c2ccc(SC)c(=O)cc21`, for which the T/C is, setting by setting: (endpoint: mean survival time, dose: 12.5 mg/kg/injection, schedule: Q01DX001 (ip), vehicle: Klucel (hydroxypropylcellulose) (HPC)) 104 % of control; (endpoint: mean survival time, dose: 25.0 mg/kg/injection, schedule: Q01DX001 (ip), vehicle: Klucel (hydroxypropylcellulose) (HPC)) 106 % of control; (endpoint: mean survival time, dose: 50.0 mg/kg/injection, schedule: Q01DX001 (ip), vehicle: Klucel (hydroxypropylcellulose) (HPC)) 102 % of control.

For the molecule `CCCCCCCCCCCCCCCCCCCCCC(O)(CC)CC`, the T/C is 97 % of control under setting [1]; 94 % of control under setting [2]; 94 % of control (endpoint: mean survival time, dose: 200.0 mg/kg/injection, schedule: Q01DX009 (ip), vehicle: saline with Tween-80); 94 % of control under setting [3]; 100 % of control (endpoint: mean survival time, dose: 400.0 mg/kg/injection, schedule: Q01DX009 (ip), vehicle: saline with Tween-80); 95 % of control under setting [4].

As to `CC(NCCN1CC1)C1CC1` (centres undefined), the T/C by setting is: (endpoint: mean survival time, dose: 17.6 mg/kg/injection, schedule: Q01DX009 (ip), vehicle: saline) 94 % of control; (endpoint: mean survival time, dose: 26.4 mg/kg/injection, schedule: Q01DX009 (ip), vehicle: saline) 100 % of control; (endpoint: mean survival time, dose: 40.0 mg/kg/injection, schedule: Q01DX009 (ip), vehicle: saline) 105 % of control; (endpoint: mean survival time, dose: 60.0 mg/kg/injection, schedule: Q01DX009 (ip), vehicle: saline) 117 % of control.

`NC(CSC(c1ccccc1)(c1ccccc1)c1ccccc1)C(=O)NCC(=O)O` (centres undefined): the T/C by setting is: (endpoint: mean survival time, dose: 25.0 mg/kg/injection, schedule: Q01DX009 (ip), vehicle: saline) 110 % of control; (endpoint: mean survival time, dose: 200.0 mg/kg/injection, schedule: Q01DX009 (ip), vehicle: saline) 171 % of control.

These data come from PubChem BioAssay AID256 (DTP/NCI, 2004).
